For one compound, Normal melting temperature results are on record in the NIST ThermoML archive (doi:10.1021/je800618x).

Numbers after ± are expanded uncertainties.

The conditions of the data set: Crystal; DTA.

As to `CC[n+]1ccccc1.F[P-](F)(F)(F)(F)F` [1-ethylpyridinium hexafluorophosphate], the Normal melting temperature was 103.20 ± 0.41 °C.
